Test results reported in the supplement of paper PMC4862054.

tested on: HCC1937; assay: drug sensitivity score (DSS), CellTiter-Glo (DSS (AUC-based score)); higher = stronger drug effect (viability inhibition or cytotoxicity); extreme values may be limits of the assay; conditions: incubation time: 72 h
Outline: (§1)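 Breast cancer cell lines (20 µl suspension) were seeded into 384-well plates holding compound at 5 concentrations in 10-fold steps over a compound-specific 10,000-fold range, then incubated 72 h. CellTox Green fluorescence (485/520 nm) was read first, then CellTiter-Glo luminescence after 10 min at room temperature. Each plate was normalised to 0.1 % DMSO and a positive kill control. The drug sensitivity score was calculated from the area under the fitted dose-response curve.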

Q: For `COc1ncc(-c2ccc3nccc(-c4ccnnc4)c3c2)cc1NS(=O)(=O)c1ccc(F)cc1F`, which drug sensitivity score is on record?
A: Its drug sensitivity score is 10.6.

Q: With `Cn1c(=O)c(F)c(Nc2ccc(I)cc2F)c2c(=O)n(C[C@@H](O)CO)cnc21` [TAK-733] as the compound, how does the drug sensitivity score read?
A: Its drug sensitivity score is 3.

Q: For `CCS(=O)(=O)c1cccc(-c2cc(C(=O)NC3CCN(C)CC3)c(C)c3[nH]c4ncc(C)cc4c23)c1` [TAK-901], which drug sensitivity score is on record?
A: Its drug sensitivity score is 0.

Q: For `COC1=CC(c2cc3ccccc3[nH]2)=N/C1=C\c1[nH]c(C)cc1C` [Obatoclax], which drug sensitivity score is on record?
A: Its drug sensitivity score is 7.4.

Q: `CS(=O)(=O)OCCCCOS(C)(=O)=O` [Busulfan] was tested. Which drug sensitivity score did it give?
A: The drug sensitivity score was 0.

Q: `COc1cccc2c1C(=O)c1c(O)c3c(c(O)c1C2=O)C[C@@](O)(C(C)=O)C[C@@H]3O[C@H]1C[C@H](N)[C@H](O)[C@H](C)O1` [Daunorubicin] was tested. Which drug sensitivity score did it give?
A: The drug sensitivity score was 2.19.

Q: With `O=c1[nH]cc(F)c(=O)[nH]1` [Fluorouracil] as the compound, how does the drug sensitivity score read?
A: Its drug sensitivity score is 0.

Q: `CN1CCN(c2ccc3nc(-c4c(N)c5c(F)cccc5[nH]c4=O)[nH]c3c2)CC1` [Dovitinib] was tested. Which drug sensitivity score did it give?
A: Its drug sensitivity score is 0.

tested on: MDA-MB-436; assay: as above; conditions: incubation time: 72 h
Outline: as §1

Q: For `COc1ncc(-c2ccc3nccc(-c4ccnnc4)c3c2)cc1NS(=O)(=O)c1ccc(F)cc1F`, which drug sensitivity score is on record?
A: Its drug sensitivity score is 11.6.

Q: Which drug sensitivity score does the source give for `Cn1c(=O)c(F)c(Nc2ccc(I)cc2F)c2c(=O)n(C[C@@H](O)CO)cnc21` [TAK-733] here?
A: Its drug sensitivity score is 1.27.

Q: How did the drug sensitivity score turn out when `CCS(=O)(=O)c1cccc(-c2cc(C(=O)NC3CCN(C)CC3)c(C)c3[nH]c4ncc(C)cc4c23)c1` [TAK-901] was run?
A: Its drug sensitivity score is 2.45.

Q: Which drug sensitivity score does the source give for `COC1=CC(c2cc3ccccc3[nH]2)=N/C1=C\c1[nH]c(C)cc1C` [Obatoclax] here?
A: The drug sensitivity score was 1.64.

Q: How did the drug sensitivity score turn out when `CS(=O)(=O)OCCCCOS(C)(=O)=O` [Busulfan] was run?
A: The drug sensitivity score was 0.

Q: Which drug sensitivity score does the source give for `COc1cccc2c1C(=O)c1c(O)c3c(c(O)c1C2=O)C[C@@](O)(C(C)=O)C[C@@H]3O[C@H]1C[C@H](N)[C@H](O)[C@H](C)O1` [Daunorubicin] here?
A: Its drug sensitivity score is 6.85.

Q: How did the drug sensitivity score turn out when `O=c1[nH]cc(F)c(=O)[nH]1` [Fluorouracil] was run?
A: Its drug sensitivity score is 3.61.

Q: With `CN1CCN(c2ccc3nc(-c4c(N)c5c(F)cccc5[nH]c4=O)[nH]c3c2)CC1` [Dovitinib] as the compound, how does the drug sensitivity score read?
A: The drug sensitivity score was 0.

tested on: MFM-223; assay: as above; conditions: incubation time: 72 h
Outline: as §1

Q: With `COc1ncc(-c2ccc3nccc(-c4ccnnc4)c3c2)cc1NS(=O)(=O)c1ccc(F)cc1F` as the compound, how does the drug sensitivity score read?
A: The drug sensitivity score was 14.3.

Q: With `Cn1c(=O)c(F)c(Nc2ccc(I)cc2F)c2c(=O)n(C[C@@H](O)CO)cnc21` [TAK-733] as the compound, how does the drug sensitivity score read?
A: Its drug sensitivity score is 0.644.

Q: How did the drug sensitivity score turn out when `CCS(=O)(=O)c1cccc(-c2cc(C(=O)NC3CCN(C)CC3)c(C)c3[nH]c4ncc(C)cc4c23)c1` [TAK-901] was run?
A: Its drug sensitivity score is 5.76.

Q: `COC1=CC(c2cc3ccccc3[nH]2)=N/C1=C\c1[nH]c(C)cc1C` [Obatoclax] was tested. Which drug sensitivity score did it give?
A: The drug sensitivity score was 0.

Q: `CS(=O)(=O)OCCCCOS(C)(=O)=O` [Busulfan] was tested. Which drug sensitivity score did it give?
A: Its drug sensitivity score is 0.

Q: How did the drug sensitivity score turn out when `COc1cccc2c1C(=O)c1c(O)c3c(c(O)c1C2=O)C[C@@](O)(C(C)=O)C[C@@H]3O[C@H]1C[C@H](N)[C@H](O)[C@H](C)O1` [Daunorubicin] was run?
A: The drug sensitivity score was 1.59.

Q: Which drug sensitivity score does the source give for `O=c1[nH]cc(F)c(=O)[nH]1` [Fluorouracil] here?
A: Its drug sensitivity score is 0.

Q: With `CN1CCN(c2ccc3nc(-c4c(N)c5c(F)cccc5[nH]c4=O)[nH]c3c2)CC1` [Dovitinib] as the compound, how does the drug sensitivity score read?
A: Its drug sensitivity score is 0.

tested on: MDA-MB-231; assay: as above; conditions: incubation time: 72 h
Outline: as §1

Q: How did the drug sensitivity score turn out when `COc1ncc(-c2ccc3nccc(-c4ccnnc4)c3c2)cc1NS(=O)(=O)c1ccc(F)cc1F` was run?
A: Its drug sensitivity score is 10.3.

Q: Which drug sensitivity score does the source give for `Cn1c(=O)c(F)c(Nc2ccc(I)cc2F)c2c(=O)n(C[C@@H](O)CO)cnc21` [TAK-733] here?
A: The drug sensitivity score was 3.88.

Q: For `CCS(=O)(=O)c1cccc(-c2cc(C(=O)NC3CCN(C)CC3)c(C)c3[nH]c4ncc(C)cc4c23)c1` [TAK-901], which drug sensitivity score is on record?
A: Its drug sensitivity score is 7.63.

Q: `COC1=CC(c2cc3ccccc3[nH]2)=N/C1=C\c1[nH]c(C)cc1C` [Obatoclax] was tested. Which drug sensitivity score did it give?
A: Its drug sensitivity score is 7.72.

Q: With `CS(=O)(=O)OCCCCOS(C)(=O)=O` [Busulfan] as the compound, how does the drug sensitivity score read?
A: Its drug sensitivity score is 0.

Q: For `COc1cccc2c1C(=O)c1c(O)c3c(c(O)c1C2=O)C[C@@](O)(C(C)=O)C[C@@H]3O[C@H]1C[C@H](N)[C@H](O)[C@H](C)O1` [Daunorubicin], which drug sensitivity score is on record?
A: Its drug sensitivity score is 6.97.

Q: How did the drug sensitivity score turn out when `O=c1[nH]cc(F)c(=O)[nH]1` [Fluorouracil] was run?
A: Its drug sensitivity score is 0.

Q: `CN1CCN(c2ccc3nc(-c4c(N)c5c(F)cccc5[nH]c4=O)[nH]c3c2)CC1` [Dovitinib] was tested. Which drug sensitivity score did it give?
A: The drug sensitivity score was 0.

tested on: HCC1599; assay: as above; conditions: incubation time: 72 h
Outline: as §1

Q: For `COc1ncc(-c2ccc3nccc(-c4ccnnc4)c3c2)cc1NS(=O)(=O)c1ccc(F)cc1F`, which drug sensitivity score is on record?
A: Its drug sensitivity score is 9.77.

Q: With `Cn1c(=O)c(F)c(Nc2ccc(I)cc2F)c2c(=O)n(C[C@@H](O)CO)cnc21` [TAK-733] as the compound, how does the drug sensitivity score read?
A: Its drug sensitivity score is 0.

Q: `CCS(=O)(=O)c1cccc(-c2cc(C(=O)NC3CCN(C)CC3)c(C)c3[nH]c4ncc(C)cc4c23)c1` [TAK-901] was tested. Which drug sensitivity score did it give?
A: The drug sensitivity score was 0.

Q: For `COC1=CC(c2cc3ccccc3[nH]2)=N/C1=C\c1[nH]c(C)cc1C` [Obatoclax], which drug sensitivity score is on record?
A: Its drug sensitivity score is 0.

Q: `CS(=O)(=O)OCCCCOS(C)(=O)=O` [Busulfan] was tested. Which drug sensitivity score did it give?
A: Its drug sensitivity score is 0.

Q: Which drug sensitivity score does the source give for `COc1cccc2c1C(=O)c1c(O)c3c(c(O)c1C2=O)C[C@@](O)(C(C)=O)C[C@@H]3O[C@H]1C[C@H](N)[C@H](O)[C@H](C)O1` [Daunorubicin] here?
A: The drug sensitivity score was 2.8.

Q: Which drug sensitivity score does the source give for `O=c1[nH]cc(F)c(=O)[nH]1` [Fluorouracil] here?
A: Its drug sensitivity score is 0.

Q: With `CN1CCN(c2ccc3nc(-c4c(N)c5c(F)cccc5[nH]c4=O)[nH]c3c2)CC1` [Dovitinib] as the compound, how does the drug sensitivity score read?
A: The drug sensitivity score was 0.

tested on: HDQ-P1; assay: as above; conditions: incubation time: 72 h
Outline: as §1

Q: How did the drug sensitivity score turn out when `COc1ncc(-c2ccc3nccc(-c4ccnnc4)c3c2)cc1NS(=O)(=O)c1ccc(F)cc1F` was run?
A: The drug sensitivity score was 19.4.

Q: With `Cn1c(=O)c(F)c(Nc2ccc(I)cc2F)c2c(=O)n(C[C@@H](O)CO)cnc21` [TAK-733] as the compound, how does the drug sensitivity score read?
A: The drug sensitivity score was 10.1.

Q: With `CCS(=O)(=O)c1cccc(-c2cc(C(=O)NC3CCN(C)CC3)c(C)c3[nH]c4ncc(C)cc4c23)c1` [TAK-901] as the compound, how does the drug sensitivity score read?
A: The drug sensitivity score was 3.52.

Q: How did the drug sensitivity score turn out when `COC1=CC(c2cc3ccccc3[nH]2)=N/C1=C\c1[nH]c(C)cc1C` [Obatoclax] was run?
A: Its drug sensitivity score is 0.

Q: How did the drug sensitivity score turn out when `CS(=O)(=O)OCCCCOS(C)(=O)=O` [Busulfan] was run?
A: The drug sensitivity score was 0.

Q: `COc1cccc2c1C(=O)c1c(O)c3c(c(O)c1C2=O)C[C@@](O)(C(C)=O)C[C@@H]3O[C@H]1C[C@H](N)[C@H](O)[C@H](C)O1` [Daunorubicin] was tested. Which drug sensitivity score did it give?
A: Its drug sensitivity score is 3.57.

Q: Which drug sensitivity score does the source give for `O=c1[nH]cc(F)c(=O)[nH]1` [Fluorouracil] here?
A: Its drug sensitivity score is 0.

Q: For `CN1CCN(c2ccc3nc(-c4c(N)c5c(F)cccc5[nH]c4=O)[nH]c3c2)CC1` [Dovitinib], which drug sensitivity score is on record?
A: Its drug sensitivity score is 0.

tested on: MDA-MB-468; assay: as above; conditions: incubation time: 72 h
Outline: as §1

Q: For `COc1ncc(-c2ccc3nccc(-c4ccnnc4)c3c2)cc1NS(=O)(=O)c1ccc(F)cc1F`, which drug sensitivity score is on record?
A: The drug sensitivity score was 13.9.

Q: Which drug sensitivity score does the source give for `Cn1c(=O)c(F)c(Nc2ccc(I)cc2F)c2c(=O)n(C[C@@H](O)CO)cnc21` [TAK-733] here?
A: Its drug sensitivity score is 3.59.

Q: `CCS(=O)(=O)c1cccc(-c2cc(C(=O)NC3CCN(C)CC3)c(C)c3[nH]c4ncc(C)cc4c23)c1` [TAK-901] was tested. Which drug sensitivity score did it give?
A: The drug sensitivity score was 12.3.

Q: Which drug sensitivity score does the source give for `COC1=CC(c2cc3ccccc3[nH]2)=N/C1=C\c1[nH]c(C)cc1C` [Obatoclax] here?
A: The drug sensitivity score was 3.12.

Q: For `CS(=O)(=O)OCCCCOS(C)(=O)=O` [Busulfan], which drug sensitivity score is on record?
A: Its drug sensitivity score is 0.

Q: With `COc1cccc2c1C(=O)c1c(O)c3c(c(O)c1C2=O)C[C@@](O)(C(C)=O)C[C@@H]3O[C@H]1C[C@H](N)[C@H](O)[C@H](C)O1` [Daunorubicin] as the compound, how does the drug sensitivity score read?
A: Its drug sensitivity score is 10.7.

Q: Which drug sensitivity score does the source give for `O=c1[nH]cc(F)c(=O)[nH]1` [Fluorouracil] here?
A: The drug sensitivity score was 0.

Q: With `CN1CCN(c2ccc3nc(-c4c(N)c5c(F)cccc5[nH]c4=O)[nH]c3c2)CC1` [Dovitinib] as the compound, how does the drug sensitivity score read?
A: The drug sensitivity score was 0.
